In US4591552A, “Detection of hepatitis B surface antigen (or antibody to same) with labeled synthetic peptide” (priority 1982, dated 1986):

Test system: antiserum to the synthetic peptide
Assay: Competition immunoassay: binding to Staphylococci (protein A) of β-galactosidase-conjugated peptide 135-155 complexed with homologous antibodies
Design: species or system rabbit
Settings: control antigens
Protocol: It is known that immunoglobulins of the IgG class attach to Staphylococci carrying protein A. If the immunoglobulins are bound to labeled antigens thus forming immune complexes, such (labeled) complexes attach to the Staphylococci. […] The above forms the basis of the following test:
250 μl of mixtures containing various unlabeled antigens, 1:125 diluted antiserum to the synthetic peptide (see Example 3 above), 1:8,000 diluted peptide-β-galactosidase conjugate (see Example 2 above) and 50 mg/ml of bovine serum albumin (BSA) were each incubated for 30 minutes at 37° C. and mixed with an equal volume of a 2.5% suspension of Staphylococci (Pansorbin, Calbiochem, LaJolla, Calif.). The bacteria were pelleted, washed with tris-buffered saline, and the adsorbed β-galactosidase corresponding to the enzyme-peptide conjugate was determined fluorometrically as described by Neurrath and Strick, J. Virol. Methods, supra. The fluorescence in the absence of unlabeled competing antigens was 900.

synthetic insulin A chain: control antigen
inhibitory effect on binding of β-galactosidase activity to the bacteria: did not have any inhibitory effect
